According to patent publication US11891348B2, “Cycloheptylamine derivatives as anti-diabetic agents” (UNITED ARAB EMIRATES UNIVERSITY, priority 2020, dated 2024):
Entries after “also recorded” stand apart in the source; their conditions may differ. Where a name gives a salt, the structure may show the parent alone.

Experiments:
[1] = tested on: STZ-induced diabetic rats; assay: Fasting blood glucose (FBG) in Streptozotocin (STZ)-induced diabetic rats after oral administration; format: in vivo
Experimental: (§1) FIG. 1A is a bar graph showing in vivo anti-hyperglycemic effect on fasting blood glucose levels over time, ranging from 0 minute to 480 minutes, and at 1440 minutes, in STZ-induced diabetic rats, comparing a dose of 1.0 μM/kg compound 2a with control. Results are means±SEM; n=6 rats; * P<0.05, ** P<0.01, vs. STZ control.
as §1, with “1B” for “1A”, “2b” for “2a”
as §1, with “FIG. 1C” for “FIG. 1A”, “comparing an oral” for “comparing a”, “compound 2c” for “compound 2a”
as §1, with “FIG. 1D is a” for “FIG. 1A is a”, “from 0 minutes to 480” for “from 0 minute to 480”, “μM/kg compound 2d with control.” for “μM/kg compound 2a with control.”
These symptoms indicated the development of diabetes characterized by chronic and persistently elevated plasma glucose levels.
Compound 2a was orally administrated to the treated groups of diabetic rats at a dose of 1.0 μM/kg. Glucose levels in their blood were followed over 8.0 hours. […] Compounds 2b-d were orally administrated to the treated groups of diabetic rats at a dose of 1.0 μM/kg. Blood glucose levels were monitored at 0, 30 minutes, 60 minutes, 2 hours, 4 hours, 6 hours, 8 hours, and then again at 24 hours.

[2] = tested on: βTC6 cells; assay: Insulin secretion by βTC6 cells, high range insulin Sandwich ELISA kit; format: cell-based; settings: for insulin secretion compared to the basal control: absence of glucose; for insulin secretion compared to basal insulin secretion: presence of 2.8 mM glucose, 10^−15, 10^−12, and 10^−9 M
Experimental: FIG. 2A is a bar graph showing the in vitro effects on insulin secretion of compound 2a at concentrations of 10^−15, 10^−12, and 10^−9 M, compared to control, in both the absence and presence of 2.8 mM glucose. Results are means of triplicates±SEM; * P<0.05, ** P<0.01, *** P<0.001, from relative basal control.
The secretion of insulin by βTC6 cells was measured using the high range insulin Sandwich ELISA kit. The 2.8 mM glucose gave a mild insulin response around 3000 pmol/l and was used in testing the effect of compounds 2a-d. […]

[3] = 10^−15, 10^−12, and 10^−9 M tested

Row | SMILES | melting point [°C] | insulin secretion compared to the basal control [2, 3] | insulin secretion compared to basal insulin secretion [2] | also measured
1 | c1cc(-c2cc[n+](C3CCCCCC3)cc2)ccn1 (as salt: chloride) [compound 6, 1-cycloheptyl-[4,4′-bipyridin]-1-ium chloride] | 102 | – | – | –
2 | N=C(N)NC1CCCCCC1 (as salt: hydrochloride) [compound 10, 1-Cycloheptylguanidine hydrochloride] | 106 | – | – | –
3 | O=C(Nc1cc(C(F)(F)F)cc(C(F)(F)F)c1)NC1CCCCCC1 [9a, 1-[3′,5′-Bis(trifluoromethyl)phenyl]-3-cycloheptylurea] | 169 to 170 | – | – | –
4 | NC1CCCCCC1 [compound 2a, Cycloheptanamine Hydrochloride] | – | significantly stimulated | – | duration of significant reduction in blood glucose levels ([1]; 1.0 μM/kg): at least 8 hours; time to significant reduction in blood glucose levels ([1]; 1.0 μM/kg): ≤ 1 h; reduction in blood glucose levels compared to control diabetic rats ([1]; oral dose of 1.0 μM/kg, followed over 8.0 hours, Hydrochloride): significant reduction; also recorded: reductions in blood glucose levels; insulin secretion compared to the basal control ([2]; concentrations of 10^−15 and 10^−12 M): significantly stimulated; insulin secretion compared to basal insulin secretion ([2]; Hydrochloride): stimulated insulin secretions significantly; stimulation of insulin production ([2]; summary statement, glucose condition not given): stimulation of insulin production
5 | O=C(NC1CCCCCC1)C(=O)NC1CCCCCC1 [compound 8, N1,N2-dicycloheptyloxalamide] | 232 | – | – | –
6 | Nc1nccc(NC(=O)NC2CCCCCC2)n1 [compound 9c, 1-(2′-Aminopyrimidin-4′-yl)-3-cycloheptylurea] | 139 to 141 | not to a statistically significant degree | significant stimulation | –
7 | Nc1ccc(S(=O)(=O)NC(=O)NC2CCCCCC2)cc1 [compound 9d, 4-Amino-N-(cycloheptylcarbamoyl)benzenesulfonamide] | 235 to 236 | not to a statistically significant degree | significant stimulation | –
8 | Cc1ccc(S(=O)(=O)NC(=O)NC2CCCCCC2)cc1 [compound 9f, N-(Cycloheptylcarbamoyl)-4-methylbenzenesulfonamide] | – | not to a statistically significant degree | significant stimulation | –
9 | N=C(N)NC1CCCCCC1 [compound 10, 1-Cycloheptylguanidine hydrochloride] | – | not to a statistically significant degree | significant stimulation | –
10 | Cl.N=C(N)/N=C(\N)NC1CCCCCC1 [compound 11, (E)-Amino[(amino(cycloheptylamino)methylene)amino]methaniminium chloride] | 283 | not to a statistically significant degree | significant stimulation | –
